Marks after values point to notes of the source that are not given here.
Test system: Puccinia recondita f. sp. tritici
Test: Test I: wheat leaf rust, preventive spray on wheat seedlings, visual disease rating
Conditions: 192 h, read-out: Test I rating (% disease control)

Compound | pest or weed control at 200 µg/mL [%]
Cc1nn(C)c(Oc2ccc(C#N)cc2F)c1-c1ccc(F)cc1Cl [Compound 118, 4-[[4-(2-chloro-4-fluorophenyl)-1,3-dimethyl-1H-pyrazol-5-yl]oxy]-3-fluorobenzonitrile] | 100
Cc1nn(C)c(Nc2ccc(F)cc2Br)c1-c1ccc(F)cc1Cl [Compound 265, N-(2-bromo-4-fluorophenyl)-4-(2-chloro-4-fluorophenyl)-1,3-dimethyl-1H-pyrazol-5-amine] | 100

Same assay, conditions: wheat leaf rust, preventive spray; 100 = 100% disease control, 0 = no control

Compound | Test I rating (% disease control) [%]
COc1ccc(Nc2c(-c3ccc(F)cc3F)c(C)nn2C)cc1OC [compound 72] | 0
COc1cc(F)c(-c2c(C)nn(C)c2Nc2ccc(OC)nc2)c(F)c1 [compound 95] | 0
Cc1nn(C)c(Nc2c(F)cc(F)cc2F)c1-c1ccc(Cl)cc1 [compound 28] | 91
Cc1nn(C)c(Nc2cc(F)ccc2F)c1-c1c(F)cc(C#N)cc1F [compound 137] | 100

Same assay, conditions: wheat leaf rust, preventive spray; rating marked with asterisk (different test condition, key not given)

Compound | Test I rating (% disease control), value marked *
COc1cc(F)c(-c2c(C)nn(C)c2Oc2ccc(Cl)cn2)c(F)c1 [compound 47] | 96* %

Same assay, conditions: wheat leaf rust, preventive; 100 = 100% disease control, 0 = no control relative to controls

Compound | Test I rating (% disease control) [%]
COc1cc(Oc2c(-c3c(F)cc(F)cc3F)c(C)nn2C)ccc1C [compound 217] | 79

Test system: Botrytis cinerea
Test: Test B: tomato Botrytis, preventive spray on tomato seedlings, visual disease rating
Conditions: Botrytis cinerea, in Solanum lycopersicum, 120 h, read-out: Test B rating (% disease control)

Compound | pest or weed control at 200 µg/mL [%]
Cc1nn(C)c(Oc2ccc(C#N)cc2F)c1-c1ccc(F)cc1Cl [Compound 118, 4-[[4-(2-chloro-4-fluorophenyl)-1,3-dimethyl-1H-pyrazol-5-yl]oxy]-3-fluorobenzonitrile] | 100
Cc1nn(C)c(Nc2ccc(F)cc2Br)c1-c1ccc(F)cc1Cl [Compound 265, N-(2-bromo-4-fluorophenyl)-4-(2-chloro-4-fluorophenyl)-1,3-dimethyl-1H-pyrazol-5-amine] | 100

Same assay, conditions: tomato Botrytis, preventive spray; 100 = 100% disease control, 0 = no control

Compound | Test B rating (% disease control) [%]
COc1ccc(Nc2c(-c3ccc(F)cc3F)c(C)nn2C)cc1OC [compound 72] | 0
COc1cc(F)c(-c2c(C)nn(C)c2Nc2ccc(OC)nc2)c(F)c1 [compound 95] | 99
Cc1nn(C)c(Nc2c(F)cc(F)cc2F)c1-c1ccc(Cl)cc1 [compound 28] | 99
Cc1nn(C)c(Nc2cc(F)ccc2F)c1-c1c(F)cc(C#N)cc1F [compound 137] | 96

Same assay, conditions: tomato Botrytis, preventive spray; rating marked with asterisk (different test condition, key not given)

Compound | Test B rating (% disease control), value marked *
COc1cc(F)c(-c2c(C)nn(C)c2Oc2ccc(Cl)cn2)c(F)c1 [compound 47] | 100* %

Same assay, conditions: tomato Botrytis; 100 = 100% disease control, 0 = no control relative to controls

Compound | Test B rating (% disease control) [%]
COc1cc(Oc2c(-c3c(F)cc(F)cc3F)c(C)nn2C)ccc1C [compound 217] | 75

Test system: Septoria tritici
Test: Test G: wheat leaf blotch, preventive spray on wheat seedlings, visual disease rating
Conditions: Zymoseptoria tritici, in Triticum aestivum, 504 h, read-out: Test G rating (% disease control)

Compound | pest or weed control at 200 µg/mL [%]
Cc1nn(C)c(Oc2ccc(C#N)cc2F)c1-c1ccc(F)cc1Cl [Compound 118, 4-[[4-(2-chloro-4-fluorophenyl)-1,3-dimethyl-1H-pyrazol-5-yl]oxy]-3-fluorobenzonitrile] | 100
Cc1nn(C)c(Nc2ccc(F)cc2Br)c1-c1ccc(F)cc1Cl [Compound 265, N-(2-bromo-4-fluorophenyl)-4-(2-chloro-4-fluorophenyl)-1,3-dimethyl-1H-pyrazol-5-amine] | 100

Same assay, conditions: wheat leaf blotch, preventive spray; 100 = 100% disease control, 0 = no control

Compound | Test G rating (% disease control) [%]
COc1ccc(Nc2c(-c3ccc(F)cc3F)c(C)nn2C)cc1OC [compound 72] | 0
COc1cc(F)c(-c2c(C)nn(C)c2Nc2ccc(OC)nc2)c(F)c1 [compound 95] | 97
Cc1nn(C)c(Nc2c(F)cc(F)cc2F)c1-c1ccc(Cl)cc1 [compound 28] | 96
Cc1nn(C)c(Nc2cc(F)ccc2F)c1-c1c(F)cc(C#N)cc1F [compound 137] | 99

Same assay, conditions: wheat leaf blotch, preventive spray; rating marked with asterisk (different test condition, key not given)

Compound | Test G rating (% disease control), value marked *
COc1cc(F)c(-c2c(C)nn(C)c2Oc2ccc(Cl)cn2)c(F)c1 [compound 47] | 99* %

Same assay, conditions: wheat leaf blotch; 100 = 100% disease control, 0 = no control relative to controls

Compound | Test G rating (% disease control) [%]
COc1cc(Oc2c(-c3c(F)cc(F)cc3F)c(C)nn2C)ccc1C [compound 217] | 83

Test system: Alternaria solani
Test: Test C: tomato early blight, preventive spray on tomato seedlings, visual disease rating
Conditions: Alternaria solani, in Solanum lycopersicum, 168 h, read-out: Test C rating (% disease control)

Compound | pest or weed control at 200 µg/mL [%]
Cc1nn(C)c(Oc2ccc(C#N)cc2F)c1-c1ccc(F)cc1Cl [Compound 118, 4-[[4-(2-chloro-4-fluorophenyl)-1,3-dimethyl-1H-pyrazol-5-yl]oxy]-3-fluorobenzonitrile] | 100
Cc1nn(C)c(Nc2ccc(F)cc2Br)c1-c1ccc(F)cc1Cl [Compound 265, N-(2-bromo-4-fluorophenyl)-4-(2-chloro-4-fluorophenyl)-1,3-dimethyl-1H-pyrazol-5-amine] | 99

Same assay, conditions: tomato early blight, preventive spray; 100 = 100% disease control, 0 = no control

Compound | Test C rating (% disease control) [%]
COc1ccc(Nc2c(-c3ccc(F)cc3F)c(C)nn2C)cc1OC [compound 72] | 0
COc1cc(F)c(-c2c(C)nn(C)c2Nc2ccc(OC)nc2)c(F)c1 [compound 95] | 16
Cc1nn(C)c(Nc2c(F)cc(F)cc2F)c1-c1ccc(Cl)cc1 [compound 28] | 0
Cc1nn(C)c(Nc2cc(F)ccc2F)c1-c1c(F)cc(C#N)cc1F [compound 137] | 97

Same assay, conditions: tomato early blight, preventive spray; rating marked with asterisk (different test condition, key not given)

Compound | Test C rating (% disease control), value marked *
COc1cc(F)c(-c2c(C)nn(C)c2Oc2ccc(Cl)cn2)c(F)c1 [compound 47] | 87* %

Same assay, conditions: tomato early blight; 100 = 100% disease control, 0 = no control relative to controls

Compound | Test C rating (% disease control) [%]
COc1cc(Oc2c(-c3c(F)cc(F)cc3F)c(C)nn2C)ccc1C [compound 217] | 0

Test system: Erysiphe graminis f sp. tritici
Test: Test J: wheat powdery mildew, preventive spray on wheat seedlings, visual disease rating
Conditions: Blumeria graminis, in Triticum aestivum, 192 h, read-out: Test J rating (% disease control)

Compound | pest or weed control at 200 µg/mL [%]
Cc1nn(C)c(Oc2ccc(C#N)cc2F)c1-c1ccc(F)cc1Cl [Compound 118, 4-[[4-(2-chloro-4-fluorophenyl)-1,3-dimethyl-1H-pyrazol-5-yl]oxy]-3-fluorobenzonitrile] | 99
Cc1nn(C)c(Nc2ccc(F)cc2Br)c1-c1ccc(F)cc1Cl [Compound 265, N-(2-bromo-4-fluorophenyl)-4-(2-chloro-4-fluorophenyl)-1,3-dimethyl-1H-pyrazol-5-amine] | 100

Same assay, conditions: wheat powdery mildew, preventive spray; 100 = 100% disease control, 0 = no control

Compound | Test J rating (% disease control) [%]
COc1ccc(Nc2c(-c3ccc(F)cc3F)c(C)nn2C)cc1OC [compound 72] | 0
COc1cc(F)c(-c2c(C)nn(C)c2Nc2ccc(OC)nc2)c(F)c1 [compound 95] | 0
Cc1nn(C)c(Nc2c(F)cc(F)cc2F)c1-c1ccc(Cl)cc1 [compound 28] | 0
Cc1nn(C)c(Nc2cc(F)ccc2F)c1-c1c(F)cc(C#N)cc1F [compound 137] | 100

Same assay, conditions: wheat powdery mildew, preventive spray; rating marked with asterisk (different test condition, key not given)

Compound | Test J rating (% disease control), value marked *
COc1cc(F)c(-c2c(C)nn(C)c2Oc2ccc(Cl)cn2)c(F)c1 [compound 47] | 99* %

Same assay, conditions: wheat powdery mildew; 100 = 100% disease control, 0 = no control relative to controls

Compound | Test J rating (% disease control) [%]
COc1cc(Oc2c(-c3c(F)cc(F)cc3F)c(C)nn2C)ccc1C [compound 217] | 99

Test system: Septoria nodorum
Test: Test F: Septoria glume blotch, preventive spray on wheat seedlings, visual disease rating
Conditions: Parastagonospora nodorum, in Triticum aestivum, 192 h, read-out: Test F rating (% disease control)

Compound | pest or weed control at 200 µg/mL [%]
Cc1nn(C)c(Oc2ccc(C#N)cc2F)c1-c1ccc(F)cc1Cl [Compound 118, 4-[[4-(2-chloro-4-fluorophenyl)-1,3-dimethyl-1H-pyrazol-5-yl]oxy]-3-fluorobenzonitrile] | 98
Cc1nn(C)c(Nc2ccc(F)cc2Br)c1-c1ccc(F)cc1Cl [Compound 265, N-(2-bromo-4-fluorophenyl)-4-(2-chloro-4-fluorophenyl)-1,3-dimethyl-1H-pyrazol-5-amine] | 78

Same assay, conditions: Septoria glume blotch on wheat, preventive spray; 100 = 100% disease control, 0 = no control

Compound | Test F rating (% disease control) [%]
COc1ccc(Nc2c(-c3ccc(F)cc3F)c(C)nn2C)cc1OC [compound 72] | 0
COc1cc(F)c(-c2c(C)nn(C)c2Nc2ccc(OC)nc2)c(F)c1 [compound 95] | 0
Cc1nn(C)c(Nc2c(F)cc(F)cc2F)c1-c1ccc(Cl)cc1 [compound 28] | 0
Cc1nn(C)c(Nc2cc(F)ccc2F)c1-c1c(F)cc(C#N)cc1F [compound 137] | 78

Same assay, conditions: Septoria glume blotch, preventive spray; rating marked with asterisk (different test condition, key not given)

Compound | Test F rating (% disease control), value marked *
COc1cc(F)c(-c2c(C)nn(C)c2Oc2ccc(Cl)cn2)c(F)c1 [compound 47] | 0* %

Same assay, conditions: Septoria glume blotch; 100 = 100% disease control, 0 = no control relative to controls

Compound | Test F rating (% disease control) [%]
COc1cc(Oc2c(-c3c(F)cc(F)cc3F)c(C)nn2C)ccc1C [compound 217] | 0

Test system: Puccinia recondita f. sp. tritici
Test: Test H: wheat leaf rust, curative spray on inoculated wheat seedlings, visual disease rating
Conditions: 144 h, read-out: Test H rating (% disease control)

Compound | pest or weed control at 200 µg/mL [%]
Cc1nn(C)c(Oc2ccc(C#N)cc2F)c1-c1ccc(F)cc1Cl [Compound 118, 4-[[4-(2-chloro-4-fluorophenyl)-1,3-dimethyl-1H-pyrazol-5-yl]oxy]-3-fluorobenzonitrile] | 99
Cc1nn(C)c(Nc2ccc(F)cc2Br)c1-c1ccc(F)cc1Cl [Compound 265, N-(2-bromo-4-fluorophenyl)-4-(2-chloro-4-fluorophenyl)-1,3-dimethyl-1H-pyrazol-5-amine] | 90

Same assay, conditions: wheat leaf rust, curative spray; 100 = 100% disease control, 0 = no control

Compound | Test H rating (% disease control) [%]
COc1ccc(Nc2c(-c3ccc(F)cc3F)c(C)nn2C)cc1OC [compound 72] | 59
COc1cc(F)c(-c2c(C)nn(C)c2Nc2ccc(OC)nc2)c(F)c1 [compound 95] | 0
Cc1nn(C)c(Nc2c(F)cc(F)cc2F)c1-c1ccc(Cl)cc1 [compound 28] | 7
Cc1nn(C)c(Nc2cc(F)ccc2F)c1-c1c(F)cc(C#N)cc1F [compound 137] | 8

Same assay, conditions: wheat leaf rust, curative spray; rating marked with asterisk (different test condition, key not given)

Compound | Test H rating (% disease control), value marked *
COc1cc(F)c(-c2c(C)nn(C)c2Oc2ccc(Cl)cn2)c(F)c1 [compound 47] | 37* %

Same assay, conditions: wheat leaf rust, curative; 100 = 100% disease control, 0 = no control relative to controls

Compound | Test H rating (% disease control) [%]
COc1cc(Oc2c(-c3c(F)cc(F)cc3F)c(C)nn2C)ccc1C [compound 217] | 40
